{"source": "patent US12655458B2", "about": "“Methods for cyclization of (poly)peptides comprising nγ-hydroxy- or Nγ-amino-L-asparagine” (priority 2021, dated 2026)", "key": {"MMP9": {"biological_target": "T1, MMP9 (Homo sapiens, UniProt P14780)", "T1 construct": "purchased Sigma-Aldrich", "T1 sequence (P14780 94-707, species assumed)": "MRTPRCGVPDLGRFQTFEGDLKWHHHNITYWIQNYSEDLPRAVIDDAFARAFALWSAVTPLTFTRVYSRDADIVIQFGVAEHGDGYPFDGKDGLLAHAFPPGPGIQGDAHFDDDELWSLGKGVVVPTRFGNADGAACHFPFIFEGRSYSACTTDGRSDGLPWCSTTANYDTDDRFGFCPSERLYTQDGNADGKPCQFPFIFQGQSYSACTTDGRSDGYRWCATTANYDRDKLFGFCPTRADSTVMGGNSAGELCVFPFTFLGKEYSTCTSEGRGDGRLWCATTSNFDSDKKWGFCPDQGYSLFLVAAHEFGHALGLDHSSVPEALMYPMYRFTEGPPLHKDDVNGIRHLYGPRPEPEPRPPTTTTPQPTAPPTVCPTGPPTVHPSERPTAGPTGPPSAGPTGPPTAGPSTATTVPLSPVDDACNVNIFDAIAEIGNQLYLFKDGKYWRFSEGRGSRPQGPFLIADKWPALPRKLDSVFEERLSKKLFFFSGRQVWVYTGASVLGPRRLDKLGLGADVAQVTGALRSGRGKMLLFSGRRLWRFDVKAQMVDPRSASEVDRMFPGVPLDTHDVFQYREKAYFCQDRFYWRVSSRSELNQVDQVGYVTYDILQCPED", "test": "MMPs inhibition assay (FRET substrate), MMP9", "assay_type": "biochemical", "experimental": "(§1) The inhibitory activity of the peptides was determined by measuring the MMPs' protease activity towards a FRET substrate. 0.8 nM MMP2 or MMP9 (Sigma-Aldrich), 10 μM substrate (FAM-Lys-Pro-Leu-Gly-Leu-Lys(Dabcyl)-Ala-Arg-NH2, λex 490 nm; λem 520 nm) and various concentrations of the peptides (0.0001 μM-10 μM or 0.001 μM-100 μM) were used. The reactions were performed in 50 mM Tris-HCl buffer (pH 7.5) containing 150 mM NaCl, 10 mM CaCl2, 0.05% Brij35, at 37° C. MMP2 was pre-incubated with the peptide inhibitors for 10 min before adding the substrate. All the numbers were input into GraphPad Prism (GraphPad Software, San Diego) for IC50 calculation."}, "MMP2": {"biological_target": "T2, MMP2 (Homo sapiens, UniProt P08253)", "T2 construct": "purchased Sigma-Aldrich", "T2 sequence (P08253 110-660)": "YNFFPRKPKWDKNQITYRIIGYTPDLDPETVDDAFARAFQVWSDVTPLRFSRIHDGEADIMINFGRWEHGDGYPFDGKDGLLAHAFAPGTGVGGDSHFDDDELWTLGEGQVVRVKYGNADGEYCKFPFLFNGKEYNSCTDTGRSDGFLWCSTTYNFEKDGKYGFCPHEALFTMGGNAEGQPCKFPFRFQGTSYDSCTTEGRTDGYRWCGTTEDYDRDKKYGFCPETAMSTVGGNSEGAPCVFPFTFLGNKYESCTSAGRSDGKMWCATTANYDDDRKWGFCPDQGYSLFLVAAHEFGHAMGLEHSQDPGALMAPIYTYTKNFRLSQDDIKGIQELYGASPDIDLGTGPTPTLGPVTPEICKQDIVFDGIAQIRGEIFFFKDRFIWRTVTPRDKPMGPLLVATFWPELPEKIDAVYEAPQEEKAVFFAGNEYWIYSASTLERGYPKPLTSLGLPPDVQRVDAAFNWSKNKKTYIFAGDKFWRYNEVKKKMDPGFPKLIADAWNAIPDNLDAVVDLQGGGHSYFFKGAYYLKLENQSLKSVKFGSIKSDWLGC", "test": "MMPs inhibition assay (FRET substrate), MMP2", "assay_type": "biochemical", "experimental": "as §1"}}, "note": "Positions of bridges follow the written chain, without caps; N, C: chain ends. Residues, ends and D or L forms follow the SMILES beside them.", "data": [{"compound": "CC[C@H](C)[C@@H]1NC(=O)[C@@H]2CSSC[C@H](NC(=O)[C@H](CCCNC(=N)N)NC(=O)[C@@H]3CSSC[C@H](NC1=O)C(=O)N[C@@H]([C@@H](C)O)C(=O)N[C@@H](CCCNC(=N)N)C(=O)NCC(=O)N[C@@H](Cc1ccccc1)C(=O)N3)C(=O)N[C@@H](CC(C)C)C(=O)N[C@H]1CSSC[C@H](NC(=O)[C@H](C(C)C)NC(=O)CNC(=O)[C@H](CCCNC(=N)N)NC(=O)[C@H](CCCNC(=N)N)NC1=O)C(=O)N[C@@H](CCCNC(=N)N)C(=O)N2", "note": "[Peptide 16, reference compound] (cyclo(GFCRCLCRRGVCRCICTR); disulfide 3-16, 5-14, 7-12 (inferred); ring closure inferred)", "values": [{"measurement": "Ki", "setting": "MMP9", "value": "> 10000", "unit": "nM"}, {"measurement": "Ki", "setting": "MMP2", "value": "60 ± 10.4", "unit": "nM"}]}]}
